According to patent US20080311126A1, “Antisense Oligonucleotides Directed to Ribonucleotide Reducatase R2 and Uses Thereof in Combination Therapies for the Treatment of Cancer” (Genesense Technologies, Inc, priority 2004, published 2008):
Entries after “also recorded” stand apart in the source; their conditions may differ.

How the values were obtained:
Human Melanoma = test: Tumour growth assay, human melanoma in mice; type: in vivo
Erythroleukemia = test: Survival assay, erythroleukemia in mice; type: in vivo, murine
Description: For the study of the effect of the compositions on leukaemias, the animals are grafted with a particular number of cells, and the anti-tumour activity is determined by the increase in the survival time of the treated mice relative to the controls.

[1] = tested on: Caki-1 human renal carcinoma; test: Caki-1 renal tumour xenograft in SCID mice, SEQ ID NO:1 and interleukin-2; type: in vivo; conditions: Example 10; SEQ ID NO:1 10 mg/kg/48 hours i.v.; IL2 20000 or 5000 unit 2 times per day i.p.
Description: Cell line: Human renal carcinoma cell line (Caki-1) was grown as monolayer culture in Minimum essential medium (α-MEM) supplemented with 10% fetal bovine serum (FBS), 0.1 mM non-essential amino acid, 1.0 mM sodium pyruvate, 100 U/ml penicillin, 100 μg/ml streptomycin and 0.25 μg/ml amphotericin B and 2 mM L-alanyl-1-glutamine at 37° C. in an atmosphere of 5% CO2 in air. The tumour cells were routinely subcultured twice weekly by trypsin-EDTA treatment. The cells were harvested from subconfluent logarithmically growing culture by treatment with trypsin-EDTA and counted for tumour inoculation.
Tumour Inoculation: An acclimation period of at least 7 days was allowed between animal receipt and commencement of tumour inoculation. […]
Groups and treatments: The following treatments were evaluated in this experiment: • 1. […]
Tumour sizes were measured every week day from day 7 after the tumour cell inoculation in two dimensions using a caliper, and the volume was expressed in mm^3 using the formula: V=0.5 a×b^2, where a and b are the long and short diameters of the tumour, respectively. Mean tumour volumes calculated from each measurement were then plotted in a standard graph to compare the anti-tumour efficacy to that of controls. A day after the last treatment, tumours were excised from the animals and their weights were measured.

[2] = tested on: MDA-MB435-To.1 human Taxol-resistant breast adenocarcinoma cells; test: MDA-MB435-To.1 Taxol-resistant breast adenocarcinoma, fat pad injection in SCID mice; type: in vivo; design: Tumour weight as % of saline control: concentration or dose not given beside the values; conditions: for Tumour weight as % of saline control: MDA-MB435-To.1 (breast), Taxol resistance
Description: MDA-MB435-To.1 human Taxol-resistant breast adenocarcinoma cells (4×10^6 cells in […] of PBS) were injected into the fat pad (inside of right leg) of 6-7 weeks old female SCID mice. After the size of tumour reached an approximate volume of 100 mm^3, 20 days post tumour cell injection, SEQ ID NO:1 was administered by bolus infusion into the tail vein every other day at 10 mg/kg 15 times. Control animals received saline alone for the same period. Antitumour effect of SEQ ID NO:1 was further compared to that of Cisplatin or Taxol alone. Cisplatin was administered intravenously once a week for four weeks at a dose of 4 mg/kg. Taxol was administered intravenously once a week for four weeks at a dose of 20 mg/kg.
Antitumour activities were estimated by the inhibition of tumour volume, which was measured with caliper. Bach point represents mean tumour volume calculated from 9-10 animals per experimental group. […] As expected, treatment with Taxol during the same period was ineffective against Taxol-resistant tumour.
MDA-MB435-To.1 human Taxol-resistant breast adenocarcinoma cells (4×10^6 cells in 100 μl of PBS) were injected into the fat pad (inside of right leg) of 6-7 weeks old female CB-17 SCID mice. After the size of tumour reached an approximate volume of 100 mm^3, 17 days post tumour cell injection, SEQ ID NO:1 was administered by bolus infusion into the tail vein every other day at 10 mg/kg. Control animals received saline alone for the same period. Antitumour effect of SEQ ID NO:1 was compared to that of Cisplatin alone and in combination. Cisplatin was administered intravenously once a week for four weeks at a dose of 4 mg/kg. Antitumour activities were estimated by the inhibition of tumour volume, which was measured with caliper. Each point represents mean tumour volume calculated from 10 animals per experimental group. At the end of the study the animals were sacrificed and tumours weighed.

[3] = tested on: Caki-1 human renal carcinoma; test: Caki-1 renal tumour xenograft in SCID mice, SEQ ID NO:1 and interferon alpha; type: in vivo
Description: Cell Line: Human renal carcinoma cell line (Caki-1) was grown as monolayer culture in Minimum essential medium (α-MEM) supplemented with 10% fetal bovine serum (FEBS), 0.1 mM non-essential amino acid, 1.0 mM sodium pyruvate, 100 U/ml penicillin, 100 μg/ml streptomycin and 0.25 μg/ml amphotericin B and 2 mM L-alanyl-L-glutamine at 37° C. in an atmosphere of 5% CO2 in air. The tumour cells were routinely subcultured twice weekly by trypsin-EDTA treatment. The cells were harvested from subconfluent logarithmically growing culture by treatment with trypsin-EDTA and counted for tumour inoculation.
Tumour Inoculation: An acclimation period of at least 7 days was allowed between animal receipt and commencement of tumour inoculation. When the female SCID mice were 6-7 weeks of age (20-25 g), each mouse was subcutaneously (s.c.) injected with 5×10^6 Caki-1 human renal carcinoma cells in 0.1 ml of PBS at the right flank of the mice to induce tumour growth.
Dose-Preparation and Treatment: The dose for SEQ ID NO:1 was formulated using the following procedure. From a concentrated stock solution (usually prepared in ddH2O at a concentration of 50 mg/ml and kept at −80° C.), SEQ ID NO:1 was diluted with saline to achieve a final target concentration of 1 or 2.5 mg/ml on the first day of dosing. Enough SEQ ID NO:1 was diluted so that the compound could be administered by bolus infusion into the tail vein every other day for the duration of the experiment. Recombinant interferon alfa-2b (Intron A™) was utilized according to the dose and treatment schedules below. The treatments were started 7 days after the tumour cell inoculation when the tumour size reached an approximate volume of 125 mm^3. Each treatment group contained 10 tumour-bearing mice. Routes of administration are indicated as follows: intravenous (i.v.) and intratumoural (i:t.).
Groups and Treatments: The following treatment groups were evaluated: • 1. Saline treated group-1: saline 0.1 ml/mouse/48 hours, i.v., n=10 • 2. Saline treated group-2: saline 0.05 ml/mouse/5 days/week, i.t., n=10 • 3. […] Intron A 10^3 unit/5 days/week treated group: 10^3 unit Intron A in 0.05 ml saline, i.t., n=10 • 6. Intron A 10^5 unit/5 days/week treated group: 10^5 unit Intron A in 0.05 ml saline, i.t., n=10 • 7. SEQ ID NO:1 1 mg/kg Plus Intron A 10^3 treated group: “3+5”, n=10 • 8. SEQ ID NO:1 1 mg kg Plus Intron A 10^5 treated group: “3+6”, n=10 • 9. SEQ ID NO:1 2.5 mg/kg Plus Intron A […], n=10 • 10. SEQ ID NO:1 2.5 mg/kg Plus Intron A 10^5 treated group: “4+6”, n=10
Mice received 25 treatments with SEQ ID NO:1 and 30 treatments with Intron A. The dosing schedule for Intron A was: treatment with Intron A for 3 consecutive weeks, 1 week off, and treatment with Intron A again for another 3 consecutive weeks. The dosing schedule for SEQ ID NO:1 was treatment with SEQ ID NO:1 every other day for the duration of the experiment.
Endpoints: The effects of SEQ ID NO:1 and Intron A on tumour growth were determined. Tumour sizes were measured every week from day 7 after the tumour cell inoculation in two dimensions using a caliper, and the volume was expressed in mm^3 using the formula: V=0.5 a×b^2, where a and b are the long and short diameters of the tumour, respectively. Mean tumour volumes calculated from each measurement were then plotted in a standard graph to compare the anti-tumour efficacy to that of controls. A day after the last treatment, tumours were excised from the animals and their weights were measured.
A second independent in vivo study was conducted as described in Example 1 utilizing SCID mice (female, 6 weeks old) and Caki-1 (human renal carcinoma cell line) to test the efficacy of SEQ ID NO:1 in combination with IFN alpha Briefly, 5×10^6 Caki-1 human renal carcinoma cells in 0.1 ml of PBS were injected subcutaneously at the right flank of the mice to induce tumour growth. Treatments started on the seventh day after tumour cell injection. […]

## GGCTAAATCGCTCCACCAAG (chemistry not given here) [SEQ ID NO: 1, antisense oligonucleotide that hybridizes to the coding region of human ribonucleotide reductase R2 mRNA]
Human Melanoma
  Inhibition of tumour weight: approximately 80%
Erythroleukemia; Erythroleukemia
  effect of treatment on survival: Treatment prolonged survival
Erythroleukemia; untreated died within 36 days, one treated mouse died at day 22
  survival of treated mice: Treated mice survived beyond day 71
[1]
  anti-tumour efficacy (tumour volume, tumour weight): anti-tumour efficacy as monotherapies; also recorded: superior to both high and low dose IL-2 therapy
[2]; Example 13.5, SEQ ID NO:1 10 mg/kg 15 times, Cisplatin 4 mg/kg, Taxol 20 mg/kg i.v. weekly for four weeks
  antitumour effect (tumour volume): significant reduction of tumour weight; also recorded: superior to the inhibitory effects observed with Cisplatin
[2]; Example 13.6, CB-17 SCID mice, SEQ ID NO:1 10 mg/kg every other day, Cisplatin 4 mg/kg i.v. weekly
  antitumour effect (tumour volume, tumour weight): significant reduction of tumour weight; also recorded: superior to the inhibitory effects observed with Cisplatin
[2]; CB-17/SCID
  Tumour weight as % of saline control: 37%
[2]; SCID
  Tumour weight as % of saline control: 42%
[3]; Example 2, SEQ ID NO:1 1 or 2.5 mg/kg/48 hours i.v., Intron A 10^3 or 10^5 unit 5 days/week i.t.
  anti-tumour efficacy (tumour volume, tumour weight): significant anti-tumour efficacy
[3]; Example 3, SEQ ID NO:1 2.5 or 5 mg/kg every 2 days i.v., Intron 10^5 unit 5 days/week i.t.
  anti-tumour efficacy (tumour volume, tumour weight): significant anti-tumour efficacy
[3]; Example 4, oligonucleotide 2.5 mg/kg every 2 days i.v., Intron A 10^5 unit 5 days/week i.t.
  anti-tumour efficacy (tumour volume, tumour weight): significant anti-tumour efficacy
